Assay results as given in patent publication US20150105252A1, “SUBSTITUTED PYRAZOLES AS HERBICIDES” (E I DU PONT DE NEMOURS AND COMPANY, priority 2013, published 2015).

Key:
[1] = system: barnyardgrass; assay: Test A preemergence; format: in vivo, Echinochloa crus-galli; settings: preemergence; for Barnyardgrass plant response rating (0 to 100 scale, 0 is no effect, 100 is complete control): 125 g ai/ha, visual injury approx. 10 days after treatment; for Barnyardgrass plant response rating: 500 g ai/ha, visual injury after approx. 10 days, 0 to 100 scale (0 no effect, 100 complete control)
Method in brief: (§1)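 Ratings express plant response from 0 (no effect) to 100 (complete control), judged visually against untreated controls after approximately 10 days in the greenhouse. Preemergence applications were made as directed soil sprays onto seeded loam–sand mix, and postemergence applications onto 2–10 cm plants at one- to two-leaf stage.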

[2] = system: barnyardgrass; assay: Test A postemergence; format: in vivo, Echinochloa crus-galli; settings: Postemergence
Method in brief: as §1

[3] = system: crabgrass, large; assay: Test A postemergence; format: in vivo, Digitaria sanguinalis; settings: Postemergence
Method in brief: as §1

[4] = system: morningglory; assay: Test A postemergence; format: in vivo, Ipomoea spp.; settings: Postemergence
Method in brief: as §1

[5] = system: pigweed; assay: Test A postemergence; format: in vivo, Amaranthus retroflexus; settings: Postemergence
Method in brief: as §1

[6] = system: corn; assay: Test A postemergence; format: in vivo, Zea mays; settings: Postemergence
Method in brief: as §1

[7] = system: crabgrass, large; assay: Test C preemergence; format: in vivo, Digitaria sanguinalis
Method in brief: (§2)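 Visual control ratings on a 0–100 scale (100 = complete control) made against untreated controls after 13 to 15 days in greenhouse. Compounds applied in surfactant-containing solvent mixture, either preemergence to loam/sand-sown seeds or postemergence to 1- to 4-leaf plants (2–18 cm) in peat medium.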

[8] = system: morningglory; assay: Test C preemergence; format: in vivo, Ipomoea coccinea
Method in brief: as §2

[9] = system: nutsedge, yellow; assay: Test C preemergence; format: in vivo, Cyperus esculentus
Method in brief: as §2

[10] = system: barnyardgrass; assay: Test C preemergence; format: in vivo, Echinochloa crus-galli; settings: preemergence; for Plant response rating, Barnyardgrass: 125 g ai/ha, scale 0 to 100, 0 = no effect, 100 = complete control
Method in brief: as §2

[11] = system: velvetleaf; assay: Test C preemergence; format: in vivo, Abutilon theophrasti
Method in brief: as §2

[12] = system: ryegrass, Italian; assay: Test C postemergence; format: in vivo, Lolium multiflorum; settings: postemergence
Method in brief: as §2

[13] = system: soybean; assay: Test C postemergence; format: in vivo, Glycine max; settings: postemergence; for Plant response rating, Soybean: 250 g ai/ha, scale 0 to 100 (0 no effect, 100 complete control); for Soybean plant response rating: 125 g ai/ha, scale 0 to 100, 0 no effect, 100 complete control
Method in brief: as §2

[14] = system: oilseed rape; assay: Test C postemergence; format: in vivo, Brassica napus; settings: postemergence; for Oilseed Rape plant response rating: 62 g ai/ha, scale 0 to 100
Method in brief: as §2

[15] = system: oat, wild; assay: Test C postemergence; format: in vivo, Avena fatua; settings: for Plant response rating (scale of 0 to 100 where 0 is no effect and 100 is complete control), Oat, Wild: Postemergence, 31 g ai/ha, visually evaluated after 13 to 15 days; for Oat, Wild plant response rating / Plant response rating, Oat, Wild: postemergence; for Oat, Wild plant response rating: 62 g ai/ha, scale 0 to 100
Method in brief: as §2

[16] = system: kochia; assay: Test C postemergence; format: in vivo, Kochia scoparia; settings: for Plant response rating (scale of 0 to 100 where 0 is no effect and 100 is complete control), Kochia: Postemergence, 31 g ai/ha, visually evaluated after 13 to 15 days; for Kochia plant response rating / Plant response rating, Kochia: postemergence; for Kochia plant response rating: 62 g ai/ha, scale 0 to 100
Method in brief: as §2

[17] = 125 g ai/ha, 0 to 100 scale, 0 no effect, 100 complete control
[18] = 500 g ai/ha, 0 to 100 scale (0 no effect, 100 complete control)
[19] = Preemergence, rate head not shown (block before 16 g ai/ha), scale 0 to 100
[20] = preemergence, 62 g ai/ha, scale 0 to 100 (0 no effect, 100 complete control), 13 to 15 days
[21] = preemergence, 125 g ai/ha, 13 to 15 days, scale 0 to 100, 0 = no effect, 100 = complete control
[22] = preemergence, 250 g ai/ha, scale 0 to 100, 0 is no effect, 100 is complete control
[23] = 31 g ai/ha, visual rating, scale 0 to 100 (0 no effect, 100 complete control), 13 to 15 days
[24] = 62 g ai/ha, scale 0 to 100 (0 no effect, 100 complete control), 13 to 15 days
[25] = 250 g ai/ha, scale 0 to 100, 0 is no effect, 100 is complete control
[26] = 250 g ai/ha, scale 0 to 100 (0 no effect, 100 complete control)
[27] = 125 g ai/ha, scale 0 to 100, 0 no effect, 100 complete control

CCc1cc(C(=O)NC2CC2)nn1Cc1ccnc(Br)c1 [Compound 220]
Barnyardgrass plant response rating (0 to 100 scale, 0 is no effect, 100 is complete control) [1]: 80
Barnyardgrass plant response rating [1]: 100
Barnyardgrass plant response rating [2, 17]: 80
Barnyardgrass plant response rating [2, 18]: 100
Crabgrass, Large plant response rating [3, 17]: 90
Crabgrass, Large plant response rating [3, 18]: 100
Morningglory plant response rating [4, 17]: 50
Morningglory plant response rating [4, 18]: 100
Pigweed plant response rating [5, 17]: 90
Pigweed plant response rating [5, 18]: 100
Corn plant response rating [6, 17]: 40
Corn plant response rating [6, 18]: 90
Plant response rating, Crabgrass, Large [7, 19]: 95
Crabgrass, Large plant response rating [7, 20]: 100
Plant response rating, Crabgrass, Large [7, 21]: 100
Crabgrass, Large plant response rating [7, 22]: 100
Plant response rating, Morningglory [8, 19]: 0
Morningglory plant response rating [8, 20]: 5
Plant response rating, Morningglory [8, 21]: 65
Morningglory plant response rating [8, 22]: 75
Plant response rating, Nutsedge, Yellow [9, 19]: 0
Nutsedge, Yellow plant response rating [9, 20]: 0
Plant response rating, Nutsedge, Yellow [9, 21]: 5
Nutsedge, Yellow plant response rating [9, 22]: 5
Barnyardgrass plant response rating [10, 23]: 0
Barnyardgrass plant response rating [10, 24]: 15
Plant response rating, Barnyardgrass ([10]; 13 to 15 days): 35
Barnyardgrass plant response rating [10, 25]: 95
Plant response rating, Velvetleaf [11, 19]: 5
Velvetleaf plant response rating [11, 20]: 20
Plant response rating, Velvetleaf [11, 21]: 75
Velvetleaf plant response rating [11, 22]: 100
Plant response rating, Ryegrass, Italian [12, 26]: 5
Plant response rating, Ryegrass, Italian [12, 27]: 5
Plant response rating, Soybean [13]: 75
Soybean plant response rating [13]: 30
Oilseed Rape plant response rating [14]: 5
Plant response rating, Oilseed Rape [14, 26]: 40
Plant response rating, Oilseed Rape [14, 27]: 30
Plant response rating (scale of 0 to 100 where 0 is no effect and 100 is complete control), Oat, Wild [15]: 0
Oat, Wild plant response rating [15]: 5
Plant response rating, Oat, Wild [15, 26]: 15
Plant response rating, Oat, Wild [15, 27]: 10
Plant response rating (scale of 0 to 100 where 0 is no effect and 100 is complete control), Kochia [16]: 80
Kochia plant response rating [16]: 85
Plant response rating, Kochia [16, 26]: 90
Plant response rating, Kochia [16, 27]: 90

CCc1cc(C(=O)NCC(F)(F)F)nn1Cc1ccnc(Br)c1 [Compound 224]
Barnyardgrass plant response rating (0 to 100 scale, 0 is no effect, 100 is complete control) [1]: 90
Barnyardgrass plant response rating [1]: 100
Barnyardgrass plant response rating [2, 17]: 90
Barnyardgrass plant response rating [2, 18]: 100
Crabgrass, Large plant response rating [3, 17]: 90
Crabgrass, Large plant response rating [3, 18]: 100
Morningglory plant response rating [4, 17]: 30
Morningglory plant response rating [4, 18]: 100
Pigweed plant response rating [5, 17]: 100
Pigweed plant response rating [5, 18]: 100
Corn plant response rating [6, 17]: 60
Corn plant response rating [6, 18]: 90
Plant response rating, Crabgrass, Large [7, 19]: 100
Crabgrass, Large plant response rating [7, 20]: 100
Plant response rating, Crabgrass, Large [7, 21]: 100
Crabgrass, Large plant response rating [7, 22]: 100
Plant response rating, Morningglory [8, 19]: 5
Morningglory plant response rating [8, 20]: 10
Plant response rating, Morningglory [8, 21]: 40
Morningglory plant response rating [8, 22]: 100
Plant response rating, Nutsedge, Yellow [9, 19]: 85
Nutsedge, Yellow plant response rating [9, 20]: 80
Plant response rating, Nutsedge, Yellow [9, 21]: 70
Nutsedge, Yellow plant response rating [9, 22]: 90
Barnyardgrass plant response rating [10, 23]: 25
Barnyardgrass plant response rating [10, 24]: 40
Plant response rating, Barnyardgrass ([10]; 13 to 15 days): 100
Barnyardgrass plant response rating [10, 25]: 100
Plant response rating, Velvetleaf [11, 19]: 40
Velvetleaf plant response rating [11, 20]: 65
Plant response rating, Velvetleaf [11, 21]: 100
Velvetleaf plant response rating [11, 22]: 100
Plant response rating, Ryegrass, Italian [12, 26]: 5
Plant response rating, Ryegrass, Italian [12, 27]: 5
Plant response rating, Soybean [13]: 60
Soybean plant response rating [13]: 70
Oilseed Rape plant response rating [14]: 50
Plant response rating, Oilseed Rape [14, 26]: 55
Plant response rating, Oilseed Rape [14, 27]: 50
Plant response rating (scale of 0 to 100 where 0 is no effect and 100 is complete control), Oat, Wild [15]: 5
Oat, Wild plant response rating [15]: 5
Plant response rating, Oat, Wild [15, 26]: 10
Plant response rating, Oat, Wild [15, 27]: 10
Plant response rating (scale of 0 to 100 where 0 is no effect and 100 is complete control), Kochia [16]: 80
Kochia plant response rating [16]: 85
Plant response rating, Kochia [16, 26]: 90
Plant response rating, Kochia [16, 27]: 90
